Common to all, as to format: ADME
For data set [1], the system named is Flower. Description: Drug recovery in flower of Gerbera jamesonii grown in closed hydroponic system at 22.5 g applied through nutrient solution measured on day 56 post-treatment by gas chromatographic analysis. The conditions noted are these: in vivo, other.
Data set [2] deals with Leaf. Description: Drug level in leaf of Gerbera jamesonii grown in closed hydroponic system assessed per fresh weight at 375 mg/l applied through nutrient solution measured on day 56 post-treatment in winter by gas chromatographic analysis. The conditions noted are these: other.
For data set [3], the system named is Flower. Description: Drug level in flower of Gerbera jamesonii grown in closed hydroponic system at 375 mg/l applied through nutrient solution measured 48 hr post-treatment in winter by gas chromatographic analysis. Particulars: other; call rule not given here.
Data set [4] deals with Flower. The data set is described as follows: Drug level in flower of Gerbera jamesonii grown in closed hydroponic system at 750 mg/l applied through nutrient solution measured 48 hr post-treatment in winter by gas chromatographic analysis. Particulars: other.
In data set [5] the test system is Root. The data set is described as follows: Drug level in root of Gerbera jamesonii grown in closed hydroponic system assessed per fresh weight at 375 mg/l applied through nutrient solution measured on day 17 post-treatment in winter by gas chromatographic analysis. Particulars: other.
The test system of data set [6] is Leaf. The data set is described as follows: Drug recovery in leaf of Gerbera jamesonii grown in closed hydroponic system at 45 g applied through nutrient solution measured on day 56 post-treatment by gas chromatographic analysis. Particulars: in vivo, other.
Data set [7] deals with Root. The data set is described as follows: Drug recovery in root of Gerbera jamesonii grown in closed hydroponic system at 45 g applied through nutrient solution measured on day 56 post-treatment by gas chromatographic analysis. The conditions noted are these: in vivo, other.
For data set [8], the system named is Root. The data set is described as follows: Drug level in root of Gerbera jamesonii grown in closed hydroponic system assessed per fresh weight at 750 mg/l applied through nutrient solution measured on day 121 post-treatment in winter by gas chromatographic analysis. The conditions noted are these: other.
Data set [9] concerns Root. The data set is described as follows: Drug recovery in root of Gerbera jamesonii grown in closed hydroponic system at 22.5 g applied through nutrient solution measured on day 56 post-treatment by gas chromatographic analysis. The conditions noted are these: in vivo, other.
Data set [10] relates to Leaf. Description: Drug recovery in leaf of Gerbera jamesonii grown in closed hydroponic system at 22.5 g applied through nutrient solution measured on day 56 post-treatment by gas chromatographic analysis. Particulars: in vivo, other.
For data set [11], the system named is Leaf. Description: Drug level in leaf of Gerbera jamesonii grown in closed hydroponic system assessed per fresh weight at 375 mg/l applied through nutrient solution measured on day 50 post-treatment in summer by gas chromatographic analysis. The conditions noted are these: other.
The test system of data set [12] is Flower. The data set is described as follows: Drug level in flower of Gerbera jamesonii grown in closed hydroponic system assessed per fresh weight at 375 mg/l applied through nutrient solution measured on day 121 post-treatment in winter by gas chromatographic analysis. The conditions noted are these: other.
The test system of data set [13] is Leaf. Description: Drug level in leaf of Gerbera jamesonii grown in closed hydroponic system assessed per fresh weight at 375 mg/l applied through nutrient solution measured on day 121 post-treatment in winter by gas chromatographic analysis. The conditions noted are these: other.
The test system of data set [14] is Flower. The data set is described as follows: Drug level in flower of Gerbera jamesonii grown in closed hydroponic system assessed per fresh weight at 750 mg/l applied through nutrient solution measured on day 121 post-treatment in winter by gas chromatographic analysis. Particulars: other.
Data set [15] concerns Leaf. The data set is described as follows: Drug level in leaf of Gerbera jamesonii grown in closed hydroponic system assessed per fresh weight at 750 mg/l applied through nutrient solution measured on day 121 post-treatment in winter by gas chromatographic analysis. Particulars: other.
The subject of data set [16] is Flower. The data set is described as follows: Drug level in flower of Gerbera jamesonii grown in closed hydroponic system assessed per fresh weight at 375 mg/l applied through nutrient solution measured on day 56 post-treatment in winter by gas chromatographic analysis. Particulars: other.
The subject of data set [17] is Leaf. The data set is described as follows: Drug level in leaf of Gerbera jamesonii grown in closed hydroponic system assessed per fresh weight at 750 mg/l applied through nutrient solution measured on day 56 post-treatment in winter by gas chromatographic analysis. Particulars: other.
The subject of data set [18] is Flower. Description: Drug recovery in flower of Gerbera jamesonii grown in closed hydroponic system at 45 g applied through nutrient solution measured on day 56 post-treatment by gas chromatographic analysis. The conditions noted are these: in vivo, other.
Data set [19] concerns Root. The data set is described as follows: Drug level in root of Gerbera jamesonii grown in closed hydroponic system assessed per fresh weight at 375 mg/l applied through nutrient solution measured on day 121 post-treatment in winter by gas chromatographic analysis. Particulars: other.
Data set [20] deals with Flower. Description: Drug level in flower of Gerbera jamesonii grown in closed hydroponic system assessed per fresh weight at 750 mg/l applied through nutrient solution measured on day 56 post-treatment in winter by gas chromatographic analysis. Particulars: other.
The subject of data set [21] is Root. Description: Drug level in root of Gerbera jamesonii grown in closed hydroponic system assessed per fresh weight at 750 mg/l applied through nutrient solution measured on day 17 post-treatment in winter by gas chromatographic analysis. The conditions noted are these: other.

These results are taken from ChEMBL document CHEMBL3046658, “Fate of cyromazine applied in nutrient solution to a gerbera (Gerbera jamesonii) crop grown in a closed hydroponic system” (Crop Prot, 2007).

Each structure is given as a SMILES string.

For the compound `Nc1nc(N)nc(NC2CC2)n1` [CYROMAZINE], the Drug recovery is given as 44% in the data set with Flower [1]; 27% in the data set with Leaf [6]; 27% in the data set on Root [7]; 44% with Root [9]; 44% in the data set on Leaf [10]; 27% with Flower [18]. Also, the Drug uptake in the data set with Leaf [2] is 105 mg/kg; with Flower [3] it was “Not Active”; in the data set with Flower [4], “Not Active”; in the data set with Root [5], 105 mg/kg; in the data set with Root [8] it was 15.1 mg/kg; in the data set on Leaf [11], 65.8 mg/kg. Also, the Drug uptake in the data set with Flower [12] came to 1.9 mg/kg; with Leaf [13], 51.5 mg/kg; in the data set on Flower [14] it was 2.2 mg/kg; in the data set on Leaf [15], 61.8 mg/kg; in the data set on Flower [16], 32.3 mg/kg; in the data set on Leaf [17], 129.7 mg/kg. The Drug uptake came out at 12.2 mg/kg in the data set with Root [19], 48.2 mg/kg in the data set with Flower [20] and 93 mg/kg with Root [21].
